Experimental data as given in ChEMBL document CHEMBL6182905, “Fluorinated sulfonamide-flavonoid derivatives as novel Keap1-Nrf2 inhibitors: Potent induction of cytoprotective gene HO-1 in vivo” (Eur J Med Chem, 2025).
Calls of active or inactive are those of the source. The calls are words filed in the database; no cut-off is given here.

What was measured:
[1] = tested on: Mus musculus; assay: Anti-inflammatory activity against APAP-induced male C57BL/6 mouse model of acute liver injury assessed as upregulation of GCLM mRNA level in liver administered intraperitoneally and measured after 12 hrs by RT-qPCR analysis; assay type: functional, organism-based; details: dose 12.5-25 mg/kg, route ip
[2] = Toxicity in C57BL/6J mouse assessed as histopathological change in splenic tissue at 25 mg/kg, ip by H and E staining based analysis; assay type: organism-based; details: in vivo
[3] = tested on: Mus musculus; assay: Hepatoprotective activity in APAP-induced Nrf2 knockout male C57BL/6 mouse model of acute liver injury assessed as reduction in liver damage at 25 mg/kg, ip preadministered with compound followed by APAP induction and measured after 12 hrs by H and E staining based analysis; assay type: functional, organism-based
[4] = tested on: Mus musculus; assay: Anti-inflammatory activity in APAP-induced C57BL/6 mouse model of acute liver injury assessed as reduction in IL-6 mRNA level in liver at 12.5 to 25 mg/kg, ip measured after 12 hrs by ELISA; assay type: functional, organism-based; details: dose 12.5-25 mg/kg
[5] = tested on: Mus musculus; assay: Anti-inflammatory activity in APAP-induced C57BL/6 mouse model of acute liver injury assessed as reduction in neutrophil invasion in liver at 12.5 to 25 mg/kg, ip measured after 12 hrs by immunohistochemical staining based analysis; assay type: functional, organism-based; details: dose 12.5-25 mg/kg
[6] = Toxicity in C57BL/6J mouse assessed as histopathological change in renal tissue at 25 mg/kg, ip by H and E staining based analysis; assay type: organism-based; details: in vivo
[7] = tested on: Mus musculus; assay: Hepatoprotective activity in APAP-induced Nrf2 knockout male C57BL/6 mouse model of acute liver injury assessed as effect on ALT level in liver at 25 mg/kg, ip preadministered with compound followed by APAP induction and measured after 12 hrs; assay type: functional, organism-based
[8] = tested on: Mus musculus; assay: Hepatoprotective activity in APAP-induced male C57BL/6 mouse model of acute liver injury assessed as attenuation of catalase (CAT) level in liver at 12.5 to 25 mg/kg, ip measured after 12 hrs; assay type: functional, organism-based; details: dose 12.5-25 mg/kg
[9] = molecular target: T1, Nuclear factor erythroid 2-related factor 2 (Mus musculus) (UniProt Q60795); assay: Activation of Nrf2 in LPS-stimulated mouse AML12 cells assessed as upregulation of Akr1c1 mRNA expression incubated for 16 hrs by RT-qPCR analysis; assay type: cell-based; details: filed as activator, dose 0.5-10 µM
T1 sequence (whole entry): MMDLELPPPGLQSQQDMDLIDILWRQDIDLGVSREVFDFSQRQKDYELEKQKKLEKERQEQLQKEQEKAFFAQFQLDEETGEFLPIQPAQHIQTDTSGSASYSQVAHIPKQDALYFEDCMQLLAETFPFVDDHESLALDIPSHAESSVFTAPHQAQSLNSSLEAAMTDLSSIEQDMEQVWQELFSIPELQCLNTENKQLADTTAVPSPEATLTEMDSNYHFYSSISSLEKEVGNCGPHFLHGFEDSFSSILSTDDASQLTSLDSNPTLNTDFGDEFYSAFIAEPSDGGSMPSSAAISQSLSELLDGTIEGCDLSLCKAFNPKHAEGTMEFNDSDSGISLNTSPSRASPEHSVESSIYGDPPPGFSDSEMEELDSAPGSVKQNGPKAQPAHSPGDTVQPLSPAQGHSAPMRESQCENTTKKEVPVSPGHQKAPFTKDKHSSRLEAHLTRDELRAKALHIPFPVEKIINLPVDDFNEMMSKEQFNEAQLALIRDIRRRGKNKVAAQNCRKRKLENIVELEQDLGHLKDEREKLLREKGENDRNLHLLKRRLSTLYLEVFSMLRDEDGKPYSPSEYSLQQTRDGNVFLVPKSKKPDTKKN

[10] = molecular target: T1, Nuclear factor erythroid 2-related factor 2 (Mus musculus); assay: Activation of Nrf2 in LPS-stimulated mouse AML12 cells assessed as upregulation of HO-1 mRNA expression incubated for 16 hrs by RT-qPCR analysis; assay type: cell-based; details: filed as activator, dose 0.5-10 µM
[11] = Elimination half life in Sprague-Dawley rat at 10 mg/kg, po; assay type: ADME, organism-based; details: in vivo, read-out: beta t1/2 (converted)
[12] = Drug concentration in liver of APAP-induced acute liver injury male C57BL/6 mouse model at 12.5 mg/kg, ip pre-administered with compound for 1 hr followed by APAP induction and measured after 12 hrs by Mass spectrometric analysis; assay type: ADME, organism-based; details: read-out: Ct
[13] = Absolute oral bioavailability in Sprague-Dawley rat at 10 mg/kg; assay type: ADME, organism-based; details: in vivo
[14] = molecular target: T1, Nuclear factor erythroid 2-related factor 2 (Mus musculus); assay: Activation of Nrf2 in LPS-stimulated mouse AML12 cells assessed as upregulation of GCLM protein level incubated for 16 hrs by Western blot analysis; assay type: cell-based; details: filed as activator, dose 0.5-10 µM
[15] = molecular target: T1, Nuclear factor erythroid 2-related factor 2 (Mus musculus); assay: Activation of Nrf2 in LPS-stimulated mouse AML12 cells assessed as upregulation of GCLM mRNA expression by measuring fold change at 10 uM incubated for 16 hrs relative to sulforaphane; assay type: cell-based; details: filed as activator
[16] = tested on: Mus musculus; assay: Hepatoprotective activity in APAP-induced male C57BL/6 mouse model of acute liver injury assessed as reduction in ALT level in liver at 12.5 to 25 mg/kg, ip measured after 12 hrs; assay type: functional, organism-based; details: dose 12.5-25 mg/kg
[17] = tested on: Mus musculus; assay: Hepatoprotective activity in APAP-induced male C57BL/6 mouse model of acute liver injury assessed as reduction in cell apoptosis in liver at 12.5 to 25 mg/kg, ip measured after 12 hrs by TUNEL assay; assay type: functional, organism-based; details: dose 12.5-25 mg/kg
[18] = tested on: Mus musculus; assay: Anti-inflammatory activity in APAP-induced Nrf2 knockout male C57BL/6 mouse model of acute liver injury assessed as increase in MPO positive cells in liver at 25 mg/kg, ip preadministered with compound followed by APAP induction and measured after 12 hrs by staining based analysis; assay type: functional, organism-based
[19] = Drug concentration in plasma of APAP-induced acute liver injury male C57BL/6 mouse model at 25 mg/kg, ip pre-administered with compound for 1 hr followed by APAP induction and measured after 12 hrs by Mass spectrometric analysis; assay type: ADME, organism-based
[20] = AUC (0 to t) last in Sprague-Dawley rat at 1 mg/kg, iv; assay type: ADME, organism-based; details: in vivo
[21] = tested on: Mus musculus; assay: Anti-inflammatory activity against APAP-induced male C57BL/6 mouse model of acute liver injury assessed as restoration of GCLM protein level in liver at 12.5 to 25 mg/kg, ip measured after 12 hrs by Western blot analysis; assay type: functional, organism-based; details: dose 12.5-25 mg/kg
[22] = Toxicity in C57BL/6J mouse assessed as histopathological change in cardiovascular tissue at 25 mg/kg, ip by H and E staining based analysis; assay type: organism-based; details: in vivo
[23] = molecular target: T1, Nuclear factor erythroid 2-related factor 2 (Mus musculus); assay: Activation of Nrf2 in LPS-stimulated mouse AML12 cells assessed as upregulation of HO-1 protein level incubated for 16 hrs by Western blot analysis; assay type: cell-based; details: filed as activator, dose 0.5-10 µM
[24] = AUC (0 to t) last in Sprague-Dawley rat at 10 mg/kg, po; assay type: ADME, organism-based; details: in vivo
[25] = tested on: Mus musculus; assay: Anti-inflammatory activity against APAP-induced male C57BL/6 mouse model of acute liver injury assessed as upregulation of HO-1 mRNA level in liver administered intraperitoneally and measured after 12 hrs by RT-qPCR analysis; assay type: functional, organism-based; details: dose 12.5-25 mg/kg, route ip
[26] = tested on: Mus musculus; assay: Hepatoprotective activity in APAP-induced male C57BL/6 mouse model of acute liver injury assessed as reduction in pathological damage in liver at 12.5 to 25 mg/kg, ip measured after 12 hrs by H and E staining based analysis; assay type: functional, organism-based; details: dose 12.5-25 mg/kg

In the case of `COc1ccc(-c2cc(=O)c3ccc(NS(=O)(=O)c4ccc(F)cc4)cc3o2)cc1`, the Activity [1] is reported as “Dose-dependent-effect”, the Activity [2] is reported as “Non-toxic” and the Activity [3] is reported as “inactive”. For the same compound, the Activity [4] was “Active”, the Activity [5] was “Active” and the Activity [6] was “Non-toxic”. The Activity [7] was “No effect”, the Activity [8] was “Active” and the Activity [9] was “Dose-dependent-effect”. For the same compound, the Activity [10] was “Dose-dependent-effect”, the half-life [11] was 3.47 h and the concentration at 13 h [12] was 175 ng/g. For the same compound, the bioavailability [13] was 19.9%, the Activity [14] was “Dose-dependent-effect” and the fold change (FC) [15] was 2.3. The Activity [16] was “Active”, the Activity [17] was “Active” and the Activity [18] was “inactive”. The concentration at 13 h [19] was 155 ng/mL, the AUCt [20] was 3869 ng·h/mL and the Activity [21] was “Active”. The Activity [22] was “Non-toxic”, the Activity [23] was “Dose-dependent-effect” and the AUC(0-t) [24] was 7690 ng·h/mL. For the same compound, the Activity [25] was “Dose-dependent-effect” and the Activity [26] was “Active”.
